Columns and labels:
[1] = system: allergic pneumonitis in guinea pigs; assay: Model of allergic pneumonitis in guinea pigs (broncho-alveolar wash-off cytology); format: in vivo, guinea pig; conditions: 0.1% solution, inhalations daily for 6 days
Method: The model of allergic pneumonitis in guinea pigs was used.
Immunization of the animals was similar to that described in Example 7.
24 hours post the last ovalbumin administration broncho-alveolar wash-off was collected (through a cannula inserted into the trachea), and changes in bronchial mucosa was assessed using a complex of histological and cytological methods.
The compounds tested (0.1% solution) were daily administered in the form of inhalations using a nebulizing device for 6 days; at day 6 of administration, antigen (OA) challenge was performed.
Broncho-alveolar wash-off was obtained in rats and guinea pigs under hexenal anesthesia by double washing the lungs through the trachea with 10 ml normal saline. Viability of cells was determined in the test with tryptane blue. Absolute number of cells in 1 ml (cytosis) was determined in the broncho-alveolar wash-off liquid (BAW) using the Goryaev's chamber. In the smears of the BAW liquid precipitate obtained using centrifugation at 200 g for 10 minutes and then stained according to Romanovskcy-Gimza, endopulmonary cytogram was calculated (in percent) [Avtsyn A. P., Lukomskij G. I., Romanova L. K. et al. Endopul'monal'naya cytogramma.//Sov. Med. 1982. No 7. pp. 8-14].

[2] = system: allergic rhinitis in guinea pigs; assay: Model of allergic rhinitis in guinea pigs (nasal wash-off cytology); format: in vivo, guinea pig; conditions: 0.1% solution, inhalations daily for 6 days
Method: The model of allergic rhinitis in guinea pigs was used.
Guinea pigs were immunized according to the certain scheme for 1.5-2 months (Hutson P. A., Church M. K. et al. 1988): the animals were first immunized by intraperitoneal administration of ovalbumin at dose 10 mg/kg at 7-day interval (twice), then ovalbumin solution was inhaled to the guinea pigs using the Pari nebulizer at increasing concentration beginning from 0.1% and reaching 1% at 4-day intervals between inhalations. The last ovalbumin dose was administered into the nasal passages using a micropipette. 24 hours post the last ovalbumin administration nasal washing was collected (through a system of special tubes) and changes in nasal mucosa was assessed using a complex of histological and cytological methods. The compounds tested (0.1% solution) were daily administered in the form of inhalations using nebulizing device for 6 days; at day 6 of administration, antigen (OA) challenge was performed. Nasal wash-off was obtained 24 hours post challenge.

[3] = system: endogenous hypercholesterolemia in guinea pigs; assay: Model of endogenous hypercholesterolemia in guinea pigs (fat loading); format: in vivo, guinea pig; set-up: Serum total cholesterol / Serum total triglyceride levels: unit not given here; conditions: for Serum total cholesterol / Serum total triglyceride levels: fat loading + compound 500 μg/kg orally
Method: The study was carried out on male guinea pigs (Aguti line) weighing 304±25 g. The experiment lasted 31 days. The control group included 6 guinea pigs (intact animals). The compounds studied were administered from day 1 of the experiment (from day 1 of administering fat loading).
The animals of experimental groups received orally for 31 days a compound studied and fat loading. The compound studied at doses indicated below was administered in the form of an aqueous solution (0.5 ml per an animal); fat loading (a mixture of porcine fat and preliminary heated corn oil at 4:1 ratio by volume, at the rate of 5 ml/kg weight 0.5 h post administering the substance studied.
1) “control”—intact animals;
2) “fat”—animals that received fat loading only
3) “compound IV”—animals that received fat loading+compound IV at dose 500 μg/kg body weight;
4) “compound V”—animals that received fat loading+compound V at dose 500 μg/kg body weight.
Statistical processing was carried out using a mono-factorial analysis of variance.

[4] = system: hypercholesterolemia in Wistar rats; assay: Model of hypercholesterolemia in rats (oral cholesterol loading); format: in vivo, rat
Method: The study was carried out on male Wistar rats weighing 200±20 g. Hyperlipidemia was induced by oral administration of cholesterol loading, oily cholesterol suspension:
olive oil (Acorsa, Spain)—5 ml/kg weigh of animals;
cholesterol (Sigma, USA)—1 g/kg weight;
sodium cholate (Sigma, USA)—100 mg/kg weight.
As a reference preparation, the preparation from the group of statines “Mevacor” (Lovastatine) manufactured by the firm Merck Sharp & Dohn was used at dose 40 mg/kg. Cholesterol suspension was administered daily in the morning for 10 days. The compounds tested (at dose 500 μg/kg) and the reference preparation (at dose 40 mg/kg) were administered to the animals togester with cholesterol suspension for 10 days. All the animals received a standard briquetted forage.
The animals were divided into the following groups:
“Control”—intact animals (n=5);
“Cholesterol”—rats that orally received cholesterol loading (n=10);
“Lovastatine”—rats that orally received cholesterol loading and Lovastatine (n=10);
“Compound IV”—rats that orally received cholesterol loading and the tested compound IV (n=10).
Blood was sampled at days 5, 8 and 10 of the experiment.
Statistical processing of the hypolipidemic action data of the tested substances was carried out with regard to the “Cholesterol” group (Table 13).
Experimental groups included:
1) “Cholesterol”—rats orally administered with oily cholesterol suspension for 10 days;
2) “Compound IV”—rats orally administered with oily cholesterol suspension and the tested compound N;
3) “Compound IV—1Na”—rats orally administered with oily cholesterol suspension and the tested mono-sodium salt of compound N;
4) “Compound IV—2Na”—rats orally administered with oily cholesterol suspension and the tested di-sodium salt of compound N;
5) “Compound V—1Na”—rats orally administered with oily cholesterol suspension and the tested mono-sodium salt of the compound V;
6) “Compound III—1Na”—rats orally administered with oily cholesterol suspension and the tested mono-sodium salt of the compound III;
7) “Compound II—1Na”—rats orally administered with oily cholesterol suspension and the tested mono-sodium salt of the compound II;
8) “Sim”—rats orally administered with oily cholesterol suspension and Simvastatine;
9) control—intact rats before beginning the test.
At day 10 of the test blood samples were taken following decapitation of the animals. The animals fasted for 12 hours prior to decapitation.
Blood serum total cholesterol, triglycerides and high density lipoprotein cholesterol (HDLC) were measured. Low and very low density lipoprotein cholesterol was calculated by the difference between total cholesterol and HDL cholesterol.
Blood serum total cholesterol and triglycerides were determined using the enzymatic methods.
Cholesterol level in high density lipoproteins (α-LP) was determined using the precipitation method of LDL and VLDL with phosphotungstic acid and magnesium ions.
Data in the tables are presented as a mean value±standard error. Significance of differences between the groups “cholesterol” and “preparation.” was assessed by the two-sampled Student's t-test.

[5] = day 31, blood serum, 500 μg/kg orally (Table 24)
[6] = day 31, blood serum, 500 μg/kg orally (Table 25)
[7] = day 5 of the experiment (Table 15)
[8] = day 8 of the experiment (Table 16)
[9] = day 10 of the experiment (Table 17)
[10] = dose 500 μg/kg, vs Cholesterol group
[11] = oral 10 days with cholesterol loading, tested compound 500 μg/kg, reference 40 mg/kg (Table 13)

O=C(O)CCCC(=O)N[C@@H](Cc1c[nH]cn1)C(=O)O [Compound IV, N^α-glutaryl-L-histidine]
Absolute number of Macrophags in broncho-alveolar wash-off [1]: 640.1 ± 57.98 in 1 μl
Cytosis (absolute number of cells in 1 μl) in broncho-alveolar wash-off [1]: 1331.3 ± 277.4 cells in 1 μl
Absolute number of Macrophags in nasal wash-off [2]: 6.1 ± 0.75 in 1 μl
Absolute number of Neutrophils in nasal wash-off [2]: 3.1 ± 1.02 in 1 μl
Citogram of nasal wash-off: Lymphocytes [2]: 5.7 ± 1.54%
Cytosis (absolute number of cells in 1 μl) in nasal wash-off ([2]; wash-off 24 hours post challenge): 43.7 ± 6.65°* cells in 1 μl
Serum total cholesterol ([3]; Day 28): 55.5 ± 6.3
Serum total triglyceride levels ([3]; Day 28): 66.8 ± 6.7
Serum total cholesterol ([3]; Day 31): 49.2 ± 3.9
Serum total triglyceride levels ([3]; Day 31): 69.0 ± 13.4
lowered LDL cholesterol ([3]; by day 31 of the experiment): 37.7%
lowered total cholesterol level ([3]; by day 31 of the experiment): 33.9%
Cholesterol, LDL [3, 5]: 42.1 ± 3.5 mg/100 ml
Cholesterol, Total [3, 5]: 49.2 ± 3.9 mg/100 ml
Cholesterol, VLDL [3, 5]: 3 ± 0.71 mg/100 ml
Triglycerides, LDL [3, 6]: 29.6 ± 2.4 mg/100 ml
Triglycerides, Total [3, 6]: 69 ± 13.4 mg/100 ml
Triglycerides, VLDL [3, 6]: 33.2 ± 12.3 mg/100 ml
Total cholesterol, HDL [4, 7]: 35.8 ± 1.2 mg/100 ml
Total cholesterol, LDL + VLDL [4, 7]: 48.5 ± 4.5 mg/100 ml
Triglycerides, Serum [4, 7]: 120.6 ± 8.9 mg/100 ml
Total cholesterol, Serum ([4]; day 5 of the experiment (Table 15), oral with oily cholesterol suspension): 84.2 ± 3.9 mg/100 ml
Total cholesterol, HDL [4, 8]: 35.9 ± 1.2 mg/100 ml
Total cholesterol, LDL + VLDL [4, 8]: 67.3 ± 8.7 mg/100 ml
Total cholesterol, Serum [4, 8]: 103.3 ± 8.1 mg/100 ml
Triglycerides, Serum [4, 8]: 154.2 ± 11.4 mg/100 ml
Total cholesterol, HDL [4, 9]: 36.5 ± 0.9 mg/100 ml
Total cholesterol, LDL + VLDL [4, 9]: 58.7 ± 5.3 mg/100 ml
Total cholesterol, Serum [4, 9]: 95.2 ± 5.4 mg/100 ml
Triglycerides, Serum [4, 9]: 143.3 ± 8.9 mg/100 ml
lowering LDL cholesterol [4, 10]: 29.8%
lowering hepatic cholesterol [4, 10]: 22.7%
lowering hepatic triglycerides [4, 10]: 19%
lowering serum total cholesterol [4, 10]: 19.5%
Total cholesterol, CHDL [4, 11]: 50.5 ± 1.3 mg/100 ml
Total cholesterol, CLLD + CLVLD [4, 11]: 46.1 ± 0.9 mg/100 ml
Total cholesterol, Liver [4, 11]: 2.78 ± 0.28 mg/g of tissue
Total cholesterol, Serum [4, 11]: 96.6 ± 5.7 mg/100 ml
Triglycerids, Liver [4, 11]: 5.53 ± 0.19 mg/g of tissue
Triglycerids, Serum [4, 11]: 95.1 ± 7.9 mg/100 ml

Source: patent publication US8318950B2, “N-acyl amino acid derivatives, a method for the preparation thereof, a pharmaceutical composition and use thereof as anti-allergic, anti-inflammatory and hypolipidemic agents” (Otkrytoe Aktsionernoe Obschestvo-Otechestvennye Lekarstva, priority 2005, dated 2012)
